Reference: patent US20070128665A1, “Methods for identifying compounds interacting with small membrane-bound gtp-ases” (priority 2003, published 2007)
Like-named read-outs stand apart in the source and are kept apart here.

Columns and labels:
CAPRI C2A/C2B domains = test: GFP-C2A/C2B localisation, live confocal microscopy, COS-7 cells; assay type: cell-based
Method: Experiments were performed to assess expression of GFP-C2A/C2B domain COS-7 cells imaged by live confocal microscopy. Cells were transfected with GFP-C2A/C2B vector by lipofection and imaged 24 hours later. […] Nuclear GFP-C2A/C2B is diffusely localised throughout the nucleoplasm before stimulation (due to size of the fusion protein). […] The stimulated association/disassociation of these structures are probably due to a specific interaction with endogenous entities near the plasma membrane and within the perinuclear region, rather than non-specific aggregation (see 20 second image).

CAPRI = test: GFP-CAPRI translocation assay, live confocal imaging, HeLa cells; assay type: cell-based; settings: HeLa cells expressing GFP-C2B; carbachol stimulation
Method: The ability of the activating peptide to induce translocation of CAPRI to the plasma membrane can be monitored by applying cell-permeable peptide to live cells expressing GFP-tagged CAPRI imaged by confocal or wide-field microscopy. Experiments were performed to assess expression of GFP-C2B compared with GFP-CAPRI in HeLa cells 24 hrs after transient transfection by lipofection. Live imaging was performed by confocal microscopy. The results are shown in FIG. 3, the image for GFP-C2B is shown on the left hand side, GFP-CAPRI images at 0 s, 30 s and 60 s are shown on the right. Cells expressing GFP-CAPRI were stimulated with carbachol to mobilise intracellular Ca^2+, time=seconds after stimulation. […] CAPRI activating peptides induce the translocation of GFP-CAPRI to the plasma membrane in the absence of agonist stimulation.

[1] = system: membrane bound active Ras (H-Ras); settings: 100 μM histamine
Source text: FIG. 9. […] Dissociation of the RBD from the plasma membrane is expressed as Relative Dissociation=maximal pixel intensity of cytosolic ROI (usually at time zero) divided by the cytosolic ROI at time x during the experiment.
(§1) Relative Dissociation=maximal pixel intensity of cytosolic ROI (usually at time zero) divided by the cytosolic ROI at time x during the experiment.

[2] = system: membrane bound active Ras (H-Ras); test: RAPID assay (Ras Activity Probe for Inhibitor Detection), GFP-RBD reporter, COS-7 cells; assay type: cell-based; settings: 50 μM ATP
Method: COS-7 cells were grown in DMEM supplemented with 10% FCS. The day before transfection cells were seeded out on 6-well tissue culture plates containing 22 mm circular glass coverslips to obtain a confluency of 50-60% prior to transfection. DNA constructs (pcDNA3.1 H-Ras, pEGFP-C3 RBD and optionally pCl-neo CAPRI) were incubated with Genejuice (Novagen) according to manufacturers instructions and added to the cell medium to transfect (lipofect) cells. 24 hours later coverslips were mounted in a heated stage (37° C.) in KH buffer [5 mM HEPES, 10 mM glucose, 25 mM NaHCO3 1.2 mM K2HPO4, 118 mM NaCl, 4.7 mM KCl, 1.2 mM MgSO4, 1.3 mM CaCl2 (pH 7.4)]. Nipkow confocal microscopy was performed using a PerkinElmer UltraView LCI system to image GFP. […] Inhibition of Ras activation, or deactivation of active Ras, was detected by dissociation of the fluorescent […] reporter from the plasma and/or Golgi membranes, into the cytosol. This was seen as a loss of fluorescent signal from the membrane/increase in fluorescent signal in the cytosol.
The inverse relative change in fluorescence intensity at a given time point is expressed as, 1−(cytosolic fluorescence intensity/maximum experimental cytosolic fluorescence intensity)
as §1

[3] = system: membrane bound active Ras (H-Ras); test: GFP-RBD dissociation in H-Ras transfected CHO.T cells; assay type: cell-based; settings: ATP 50 μM
Source text: FIG. 6. […] GFP-RBD is localised to the plasma membrane and endomembranes in non-starved, H-Ras transfected CHO.T cells.

C[C@H](CCC(=O)O)C[C@H](C)C[C@H](C)C(=O)/C=C(\O)[C@H](C)C[C@H](C)C/C=C/[C@@H](C)[C@@H](O)[C@@H](C)[C@@H](O)C[C@@H]1CC[C@@](C)([C@H]2CC[C@@](C)([C@@H](C)O)O2)O1 [ionomycin]
redistribution of GFP-C2A/C2B chimera (CAPRI C2A/C2B domains; COS-7 cells, ionomycin stimulation): forms punctate vesicular structures under the plasma membrane

C[N+](C)(C)CCOC(N)=O [carbachol]
GFP-C2B localisation (CAPRI): No detectable effect

NCCc1c[nH]cn1 [histamine]
deactivation of Ras (GFP-RBD dissociation), control cells ([1]; HeLa cells transfected with H-Ras and GFP-RBD only, or GAP-dead CAPRI (R47S mutant)): no detectable deactivation | dissociation of GFP-RBD from the plasma membrane (Ras deactivation) ([1]; non-starved HeLa transfected with H-Ras, GFP-RBD and CAPRI): rapid dissociation of the GFP-RBD from the plasma membrane

O=C(O)CN(CCOCCOCCN(CC(=O)O)CC(=O)O)CC(=O)O [EGTA]
dissociation of GFP-C2A/C2B chimera from the membrane (CAPRI C2A/C2B domains; COS-7 cells after ionomycin, 5 μM EGTA in extracellular medium): rapid dissociation of the GFP-C2A/C2B chimera from the membrane into the cytosol and nucleoplasm

Nc1ncnc2c1ncn2[C@@H]1O[C@H](COP(=O)(O)OP(=O)(O)OP(=O)(O)O)[C@@H](O)[C@H]1O [ATP]
deactivation of Ras (GFP-RBD dissociation), control cells ([2]; COS cells transfected with H-Ras and GFP-RBD only, or GAP-dead CAPRI (R47S mutant)): no detectable deactivation | dissociation of GFP-RBD from the plasma membrane (Ras deactivation) ([2]; non-starved COS-7 transfected with H-Ras, GFP-RBD and CAPRI): rapid dissociation of the GFP-RBD exclusively from the plasma membrane | deactivation of Ras at the plasma membrane (GFP-RBD dissociation) ([3]; CHO cells stably expressing CAPRI, H-Ras transfected, non-starved): rapid deactivation of Ras at the plasma membrane | GFP-RBD dissociation, parental cells ([3]; parental CHO.T cells): No such dissociation
